Reference: patent US9828374B2, “Substituted pyrazino[2,2-a]isoquinoline derivatives” (Hoffmann-La Roche Inc., priority 2014, dated 2017)

Key:
[1] = target: mouse TAAR1 (Mus musculus (Mouse), UniProt Q923Y8); assay: Radioligand binding assay on mouse TAAR1; settings: mouse TAAR1, HEK-293 membranes; first value of the mouse/rat pair
Protocol: (§1) Construction of TAAR Expression Plasmids and Stably Transfected Cell Lines
(§2) For the construction of expression plasmids the coding sequences of human, rat and mouse TAAR 1 were amplified from genomic DNA essentially as described by Lindemann et al..
(§3) The Expand High Fidelity PCR System (Roche Diagnostics) was used with 1.5 mM Mg^2+ and purified PCR products were cloned into pCR2.1-TOPO cloning vector (Invitrogen) following the instructions of the manufacturer. PCR products were subcloned into the pIRESneo2 vector (BD Clontech, Palo Alto, Calif.), and expression vectors were sequence verified before introduction in cell lines.
(§4) HEK293 cells (ATCC # CRL-1573) were cultured essentially as described by Lindemann et al. (2005). For the generation of stably transfected cell lines HEK293 cells were transfected with the pIRESneo2 expression plasmids containing the TAAR coding sequences (described above) with Lipofectamine 2000 (Invitrogen) according to the instructions of the manufacturer, and 24 hrs post transfection the culture medium was supplemented with 1 mg/ml G418 (Sigma, Buchs, Switzerland). After a culture period of about 10 d clones were isolated, expanded and tested for responsiveness to trace amines (all compounds purchased from Sigma) with the cAMP Biotrak Enzyme immunoassay (EIA) System (Amersham) following the non-acetylation EIA procedure provided by the manufacturer.
Radioligand Binding Assay on Mouse TAAR1
(§5) Membrane Preparation and Radioligand Binding.
(§6) HEK-293 cells stably expressing mouse TAAR1 were maintained at 37° C. and 5% CO2 in DMEM high glucose medium, containing fetal calf serum (10%, heat inactivated for 30 min at 56° C.), penicillin/streptomycin (1%), and 375 μg/ml geneticin (Gibco). Cells were released from culture flasks using trypsin/EDTA, harvested, washed twice with ice-cold PBS (without Ca^2+ and Mg^2+), pelleted at 1,000 rpm for 5 min at 4° C., frozen and stored at −80° C. Frozen pellets were suspended in 20 ml HEPES-NaOH (20 mM, pH 7.4) containing 10 mM EDTA and homogenized with a Polytron (PT 6000, Kinematica) at 14,000 rpm for 20 s. The homogenate was centrifuged at 48,000×g for 30 min at 4° C. Subsequently, the supernatant was removed and discarded, and the pellet resuspended in 20 ml HEPES-NaOH (20 mM, pH 7.4) containing 0.1 mM EDTA using the Polytron (20 s at 14,000 rpm). This procedure was repeated and the final pellet resuspended in HEPES-NaOH containing 0.1 mM EDTA and homogenized using the Polytron. Typically, aliquots of 2 ml membrane portions were stored at −80° C. With each new membrane batch the dissociation constant (Kd) was determined via a saturation curve. […] Nonspecific binding was defined as the amount of ^3[H]-(S)-4-[(ethyl-phenyl-amino)-methyl]-4,5-dihydro-oxazol-2-ylamine bound in the presence of 10 μM unlabeled ligand. All compounds were tested at a broad range of concentrations (10 pM to 10 μM) in duplicates. […] The 96 deep well plates were incubated for 1 hr at 4° C. Incubations were terminated by rapid filtration through Unifilter-96 plates (Packard Instrument Company) and glass filters GF/C (Perkin Elmer) presoaked for 1 hr in polyethylenimine (0.3%) and washed 3 times with 1 ml of cold binding buffer. After addition of 45 μl of Microscint 40 (PerkinElmer) the Unifilter-96 plate was sealed and after 1 hr the radioactivity counted using a TopCount Microplate Scintillation Counter (Packard Instrument Company).

[2] = target: rat TAAR1 (Rattus norvegicus (Rat), UniProt Q923Y9); assay: Radioligand binding assay on rat TAAR1; settings: rat TAAR1, HEK-293 membranes; second value of the mouse/rat pair
Chain of rat TAAR1 (Q923Y9 whole entry): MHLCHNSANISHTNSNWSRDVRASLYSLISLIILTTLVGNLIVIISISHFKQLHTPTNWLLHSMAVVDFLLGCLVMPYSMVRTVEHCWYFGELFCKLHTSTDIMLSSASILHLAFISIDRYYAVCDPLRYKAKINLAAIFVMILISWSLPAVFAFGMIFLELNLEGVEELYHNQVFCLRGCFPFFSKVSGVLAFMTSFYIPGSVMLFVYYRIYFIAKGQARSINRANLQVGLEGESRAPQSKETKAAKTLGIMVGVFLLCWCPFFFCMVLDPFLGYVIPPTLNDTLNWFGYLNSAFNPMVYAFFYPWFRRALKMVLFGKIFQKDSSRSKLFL
Protocol: as §1, §2, §3, §4
Radioligand Binding Assay on Rat TAAR1
as §5
as §6, with “rat” for “mouse”, “[H]-(S)-4-[(ethyl-phenyl-amino)-methyl]-4,5-dihydro-oxazol-2-ylamine” for “^3[H]-(S)-4-[(ethyl-phenyl-amino)-methyl]-4,5-dihydro-oxazol-2-ylamine”, “[…]” for “pM”

Chain of mouse TAAR1 (Q923Y8 whole entry): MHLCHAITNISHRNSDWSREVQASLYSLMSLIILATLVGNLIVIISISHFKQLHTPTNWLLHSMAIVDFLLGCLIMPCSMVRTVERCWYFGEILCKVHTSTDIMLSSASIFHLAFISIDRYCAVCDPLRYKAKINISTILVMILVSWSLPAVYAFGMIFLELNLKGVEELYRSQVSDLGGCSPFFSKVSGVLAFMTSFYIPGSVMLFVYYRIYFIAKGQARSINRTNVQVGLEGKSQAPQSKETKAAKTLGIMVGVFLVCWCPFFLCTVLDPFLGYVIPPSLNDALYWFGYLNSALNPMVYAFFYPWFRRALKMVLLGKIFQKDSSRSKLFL

| Structure (SMILES) | Ki [1] [µM] | Ki [2] [µM] |
| --- | --- | --- |
| O=C(Nc1ccc2c(c1)CCN1CCNC[C@@H]21)c1ccnc(C(F)(F)F)c1 [Example 1, N-[(11bR)-2,3,4,6,7,11b-hexahydro-1H-pyrazino[2,1-a]isoquinolin-9-yl]-2-(trifluoromethyl)pyridine-4-carboxamide] | 0.121 | 0.199 |
| O=C(Nc1ccc2c(c1)CCN1CCNC[C@@H]21)c1ccc(Cl)cc1 [Example 3, N-[(11bR)-2,3,4,6,7,11b-hexahydro-1H-pyrazino[2,1-a]isoquinolin-9-yl]-4-chloro-benzamide] | 0.0096 | 0.0562 |
| FC(F)(F)c1nccc(Nc2ccc3c(c2)CCN2CCNC[C@@H]32)n1 [Example 5, (11bR)-N-[2-(trifluoromethyl)pyrimidin-4-yl]-2,3,4,6,7,11b-hexahydro-1H-pyrazino[2,1-a]isoquinolin-9-amine] | 0.0354 | 0.0151 |
| FC(F)(F)c1cnc(Nc2ccc3c(c2)CCN2CCNC[C@@H]32)nc1 [Example 6, (11bR)-N-[5-(trifluoromethyl)pyrimidin-2-yl]-2,3,4,6,7,11b-hexahydro-1H-pyrazino[2,1-a]isoquinolin-9-amine] | 0.0374 | 0.0195 |
| FC(F)(F)c1cnc(Nc2ccc3c(c2)CCN2CCNC[C@@H]32)cn1 [Example 7, (11bR)-N-[5-(trifluoromethyl)pyrazin-2-yl]-2,3,4,6,7,11b-hexahydro-1H-pyrazino[2,1-a]isoquinolin-9-amine] | 0.0329 | 0.0356 |
| O=C(Nc1ccc2c(c1)CCN1CCNC[C@H]21)c1ccc(Cl)cc1 [Example 8, N-[(11bS)-2,3,4,6,7,11b-hexahydro-1H-pyrazino[2,1-a]isoquinolin-9-yl]-4-chloro-benzamide] | 0.0075 | 0.0063 |
| O=C(Nc1ccc2c(c1)CCN1CCNC[C@H]21)c1ccnc(C(F)(F)F)c1 [Example 9, N-[(11bS)-2,3,4,6,7,11b-hexahydro-1H-pyrazino[2,1-a]isoquinolin-9-yl]-2-(trifluoromethyl)pyridine-4-carboxamide] | 0.0144 | 0.0142 |
| O=C(Nc1ccc2c(c1)CCN1CCNC[C@H]21)c1cnc(C(F)(F)F)nc1 [Example 10, N-[(11bS)-2,3,4,6,7,11b-hexahydro-1H-pyrazino[2,1-a]isoquinolin-9-yl]-2-(trifluoromethyl)pyrimidine-5-carboxamide] | 0.189 | 0.191 |
| FC(F)(F)c1nccc(Nc2ccc3c(c2)CCN2CCNC[C@H]32)n1 [Example 11, (11bS)-N-[2-(trifluoromethyl)pyrimidin-4-yl]-2,3,4,6,7,11b-hexahydro-1H-pyrazino[2,1-a]isoquinolin-9-amine] | 1.18 | 0.904 |
| FC(F)(F)c1cnc(Nc2ccc3c(c2)CCN2CCNC[C@H]32)cn1 [Example 12, (11bS)-N-[5-(trifluoromethyl)pyrazin-2-yl]-2,3,4,6,7,11b-hexahydro-1H-pyrazino[2,1-a]isoquinolin-9-amine] | 0.219 | 1.98 |
| FC(F)(F)COc1cnc(Nc2ccc3c(c2)CCN2CCNC[C@@H]32)nc1 [Example 13, (R)-N-(5-(2,2,2-trifluoroethoxy)pyrimidin-2-yl)-2,3,4,6,7,11b-hexahydro-1H-pyrazino[2,1-a]isoquinolin-9-amine] | 0.0078 | 0.0119 |
| c1cc2c(cc1Nc1ncc(C3CC3)cn1)CCN1CCNC[C@@H]21 [Example 14, (11bR)-N-(5-cyclopropylpyrimidin-2-yl)-2,3,4,6,7,11b-hexahydro-1H-pyrazino[2,1-a]isoquinolin-9-amine] | 0.0066 | 0.0192 |
| c1ccc2c(c1)CCN1CCNC[C@@H]21 [Example 15, (11bR)-2,3,4,6,7,11b-hexahydro-1H-pyrazino[2,1-a]isoquinoline] | 0.0605 | 0.248 |
| O=C(Nc1cc2c(cc1F)[C@@H]1CNCCN1CC2)c1ccnc(C(F)(F)F)c1 [Example 16, N-[(11bR)-10-fluoro-2,3,4,6,7,11b-hexahydro-1H-pyrazino[2,1-a]isoquinolin-9-yl]-2-(trifluoromethyl)pyridine-4-carboxamide] | 0.175 | 1.5 |
| Fc1cc2c(cc1Nc1ncc(C(F)(F)F)cn1)CCN1CCNC[C@@H]21 [Example 17, (11bR)-10-fluoro-N-[5-(trifluoromethyl)pyrimidin-2-yl]-2,3,4,6,7,11b-hexahydro-1H-pyrazino[2,1-a]isoquinolin-9-amine] | 0.261 | 0.623 |
| COc1cc(Nc2ccc3c(c2)CCN2CCNC[C@@H]32)nc(C(F)(F)F)n1 [Example 18, (11bR)-N-[6-methoxy-2-(trifluoromethyl)pyrimidin-4-yl]-2,3,4,6,7,11b-hexahydro-1H-pyrazino[2,1-a]isoquinolin-9-amine] | 0.0439 | 0.0092 |
| CN(C)c1cc(Nc2ccc3c(c2)CCN2CCNC[C@@H]32)nc(C(F)(F)F)n1 [Example 19, N4-[(11bR)-2,3,4,6,7,11b-hexahydro-1H-pyrazino[2,1-a]isoquinolin-9-yl]-N6,N6-dimethyl-2-(trifluoromethyl)pyrimidine-4,6-diamine] | 0.0231 | 0.0076 |
| Cc1cc(Nc2ccc3c(c2)CCN2CCNC[C@@H]32)nc(C(F)(F)F)n1 [Example 20, (11bR)-N-[6-methyl-2-(trifluoromethyl)pyrimidin-4-yl]-2,3,4,6,7,11b-hexahydro-1H-pyrazino[2,1-a]isoquinolin-9-amine] | 0.0364 | 0.0112 |
| FC(F)(F)c1nc(Cl)cc(Nc2ccc3c(c2)CCN2CCNC[C@@H]32)n1 [Example 21, (11bR)-N-[6-chloro-2-(trifluoromethyl)pyrimidin-4-yl]-2,3,4,6,7,11b-hexahydro-1H-pyrazino[2,1-a]isoquinolin-9-amine] | 0.0264 | 0.0134 |
| c1cnc(Nc2ccc3c(c2)CCN2CCNC[C@@H]32)nc1 [Example 22, (11bR)-N-pyrimidin-2-yl-2,3,4,6,7,11b-hexahydro-1H-pyrazino[2,1-a]isoquinolin-9-amine] | 0.537 | 3.92 |
| Cc1cc(Nc2ccc3c(c2)CCN2CCNC[C@@H]32)nc(C)n1 [Example 23, (11bR)-N-(2,6-dimethylpyrimidin-4-yl)-2,3,4,6,7,11b-hexahydro-1H-pyrazino[2,1-a]isoquinolin-9-amine] | 0.165 | 0.457 |
